Patent publication US20200339691A1, “PROTEINACEOUS MOLECULES AND USES THEREFOR” (priority 2018, published 2020)
Where a SMILES comes first, the peptide text is derived from it. The star is where a group is joined. Myristoyl = CCCCCCCCCCCCCC(=O)*

Assays:
MDA-MB-231 cells = assay type: cell-based, human; conditions: for COI (Cell Count) / COI, Live Single Cells (Cell Count) / COI, Single (Cell Count) / Total Cell Count: 50 μM peptide, 48 hours, n = 1; for killing of total MDA-MB-231 cells: not only the CSCs
Source text: (§1) Non-adherent cells were removed during the washing steps.

induced MCF7 cells = experiment: FACS CSC inhibition in induced MCF7 cells; assay type: cell-based, human; conditions: induced MCF7 cells (PMA/TGF-β), 50 μM peptide, 48 hours
Procedure: (§2) P1 Analogues were synthesized in accordance with the procedure of Example 5. 4×10^4 MDA-MB-231 cells or 1×10^4 induced or non-induced MCF7 cells were seeded in a 12 well plate with 1 mL complete media overnight. Induced MCF7 cells were prepared by stimulating cells with PMA/TGF-β and incubating for 12 hours. Cells were treated with 50 μM test peptide (dissolved in water) for 48 hours. Cells were then washed twice with 1 mL PBS and harvested by trypsinisation. Non-adherent cells were removed during the washing steps. Adherent cells were collected, and were subsequently stained with anti-human CD44, CD24 and Hoechst 33342 antibodies on ice for 30 mins. FACS was performed on BD FACS LSRII to measure the percentage of CD44^hiCD24^lo CSCs by dividing CD44^hiCD24^lo events by total live cell counts (Hoechst negative population) (as described in Fillmore and Kuperwasser (2007) Breast Cancer Res, 9: 303). The percentage of viable cells was calculated by dividing total live cell events by total single cells as described previously (Siemann and Keng (1986), Cancer Res, 46: 3556-3559).

[1] = tested on: CD44^hiCD24^lo CSCs in MCF7 cells; experiment: FACS analysis of CD44^hiCD24^lo CSCs in MCF7 cells; assay type: cell-based, human; conditions: 50 μM peptide, 48 hours
Procedure: as §2

MCF7 cells = conditions: MCF7 cells, 50 μM peptide, 48 hours
Procedure: as §2

[2] = tested on: CD44^hiCD24^lo CSCs in MDA-MB-231 cells; experiment: FACS analysis of CD44^hiCD24^lo cancer stem cells in MDA-MB-231 cells treated with P1 analogues; assay type: cell-based, human; conditions: for Inhibition of CSCs (%) Repeat 1 / Inhibition of CSCs (%) Repeat 2 / Inhibition of CSCs (%) Repeat 3 / CD44^hiCD24^lo CSCs (%) / COI, Live Single CD44^hiCD24^lo CSCs (Cell Count) / Average Inhibition of CSCs (%) / CD44^hiCD24^lo CSCs (%) Repeat 1 / CD44^hiCD24^lo CSCs (%) Repeat 2 / CD44^hiCD24^lo CSCs (%) Repeat 3: 50 μM peptide, 48 hours; for CD44^hiCD24^lo CSCs (%) / COI, Live Single CD44^hiCD24^lo CSCs (Cell Count): n = 1; for Average Inhibition of CSCs (%) / CD44^hiCD24^lo CSCs (%) Repeat 1 / CD44^hiCD24^lo CSCs (%) Repeat 2 / CD44^hiCD24^lo CSCs (%) Repeat 3: n = 3
Procedure: Analogues of P1 (Table 6) were designed and synthesized in accordance with the procedure of Example 5. The ability of these analogues to inhibit cancer stem cells was determined using FACS analysis on MDA-MB-231 cells, which constitutively contain approximately 90% CD44^hiCD24^lo cancer stem cells, treated with the peptides.
as §1
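Throughout, for COI, Live Single Cells (Cell Count): live means Hoechst-negative events among single cells.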

SMILES	COI (Cell Count) (MDA-MB-231 cells)	COI, Live Single Cells (Cell Count) (MDA-MB-231 cells)	COI, Single (Cell Count) (MDA-MB-231 cells)	Total Cell Count (MDA-MB-231 cells)	killing of total MDA-MB-231 cells (MDA-MB-231 cells)	CSC inhibition (%) (induced MCF7 cells)	CD44^hiCD24^lo CSC % [1]	COI/Single Cells/Live/CD44^hiCD24^lo CSCs Count [1]	COI Count (MCF7 cells)	COI/Single Cell Count (MCF7 cells)	COI/Single Cells/Live Count (MCF7 cells)	Total Count (MCF7 cells)	Inhibition of CSCs (%) Repeat 1 [2]	Inhibition of CSCs (%) Repeat 2 [2]	Inhibition of CSCs (%) Repeat 3 [2]	CD44^hiCD24^lo CSCs (%) [2]	COI, Live Single CD44^hiCD24^lo CSCs (Cell Count) [2]	Average Inhibition of CSCs (%) [2]	CD44^hiCD24^lo CSCs (%) Repeat 1 [2]	CD44^hiCD24^lo CSCs (%) Repeat 2 [2]	other results
CCCCCCCCCCCCCC(=O)N[C@H](C(=O)N[C@@H](Cc1ccccc1)C(=O)N[C@H](C(=O)N[C@@H](Cc1ccccc1)C(=O)N[C@@H](CCCNC(=N)N)C(=O)N[C@@H](CC(C)C)C(=O)N[C@@H](CCCNC(=N)N)C(=O)N[C@@H](C)C(=O)NCC(=O)N[C@@H](CCCNC(=N)N)C(=O)N[C@@H](CCSC)C(=O)N[C@@H](CCSC)C(=O)N[C@@H](CC(=O)O)C(=O)N[C@H](C(=O)N[C@@H](CCCCN)C(=O)N[C@@H](CCCCN)C(N)=O)C(C)C)[C@@H](C)CC)[C@@H](C)O [Peptide 2815309, Myristoyl-TFIFRLRAGRMMDVKK-NH2] (Myristoyl-TFIFRLRAGRMMDVKK-NH2)	74	1	71	4158	killed the majority of the total MDA-MB-231 cells	52.46%	3.35%	134	5425	4124	4000	10000	100.00%	100.00%	100.00%	0.00%	1	100.00%	0.00%	0.00%	CD44^hiCD24^lo CSCs (%) Repeat 3 [2]: 0.00%; ability to inhibit cancer stem cells (CD44^hiCD24^lo CSCs) ([2]; in words): retained the ability to inhibit cancer stem cells
CCCCCCCCCCCCCC(=O)N[C@H](C(=O)N[C@@H](Cc1ccccc1)C(=O)N[C@H](C(=O)N[C@@H](Cc1ccccc1)C(=O)N[C@@H](CCCNC(=N)N)C(=O)N[C@@H](CC(C)C)C(=O)N[C@@H](CCCNC(=N)N)C(=O)N[C@@H](CCCCN)C(=O)NCC(=O)N[C@@H](CCCNC(=N)N)C(=O)N[C@@H](C)C(=O)N[C@@H](CCSC)C(=O)N[C@@H](CC(=O)O)C(=O)N[C@H](C(=O)N[C@@H](CCCCN)C(=O)N[C@@H](CCCCN)C(N)=O)C(C)C)[C@@H](C)CC)[C@@H](C)O [Peptide 2815312, Myristoyl-TFIFRLRKGRAMDVKK-NH2] (Myristoyl-TFIFRLRKGRAMDVKK-NH2)	9	6	7	2993	killed the majority of the total MDA-MB-231 cells	53.47%	3.28%	142	5333	4517	4331	10000	100.00%	100.00%	100.00%	0.00%	0	100.00%	0.00%	0.00%	CD44^hiCD24^lo CSCs (%) Repeat 3 [2]: 0.00%
CCCCCCCCCCCCCC(=O)N[C@H](C(=O)N[C@@H](Cc1ccccc1)C(=O)N[C@H](C(=O)N[C@@H](Cc1ccccc1)C(=O)N[C@@H](CCCNC(=N)N)C(=O)N[C@@H](CC(C)C)C(=O)N[C@@H](CCCNC(=N)N)C(=O)N[C@@H](CCCCN)C(=O)NCC(=O)N[C@@H](CCCNC(=N)N)C(=O)N[C@@H](CCSC)C(=O)N[C@@H](CCSC)C(=O)N[C@@H](C)C(=O)N[C@H](C(=O)N[C@@H](CCCCN)C(=O)N[C@@H](CCCCN)C(N)=O)C(C)C)[C@@H](C)CC)[C@@H](C)O [Peptide 2815314, Myristoyl-TFIFRLRKGRMMAVKK-NH2] (Myristoyl-TFIFRLRKGRMMAVKK-NH2)	10	2	9	5611	killed the majority of the total MDA-MB-231 cells	61.00%	2.75%	145	6564	5443	5276	10000	100.00%	100.00%	100.00%	0.00%	0	100.00%	0.00%	0.00%	CD44^hiCD24^lo CSCs (%) Repeat 3 [2]: 0.00%
CCCCCCCCCCCCCC(=O)N[C@@H](CC(C)C)C(=O)N[C@@H](CCCCN)C(=O)N[C@@H](Cc1ccccc1)C(=O)N[C@H](C(=O)N[C@@H](Cc1ccccc1)C(=O)N[C@@H](CCCNC(=N)N)C(=O)N[C@@H](CC(C)C)C(=O)N[C@@H](CCCNC(=N)N)C(=O)N[C@@H](CCCCN)C(=O)NCC(=O)N[C@@H](CCCNC(=N)N)C(=O)N[C@@H](CCSC)C(=O)N[C@@H](CCSC)C(=O)N[C@@H](CC(=O)O)C(=O)N[C@H](C(=O)N[C@@H](CCCCN)C(=O)N[C@@H](CCCCN)C(N)=O)C(C)C)[C@@H](C)CC [Peptide 2853805, Myristoyl-LKFIFRLRKGRMMDVKK-NH2] (Myristoyl-LKFIFRLRKGRMMDVKK-NH2)	52	1	32	3221	killed the majority of the total MDA-MB-231 cells	64.52%	2.50%	108	5356	4637	4320	10000	100.00%	100.00%	100.00%	0.00%	0	100.00%	0.00%	0.00%	CD44^hiCD24^lo CSCs (%) Repeat 3 [2]: 0.00%
